Data published in ChEMBL document CHEMBL3112451, “Synthesis of 2',3',4'-trihydroxyflavone (2-D08), an inhibitor of protein sumoylation” (Bioorg Med Chem Lett, 2014).
The source made the active and inactive calls. The calls are words filed in the database; no cut-off is given here.

Target: SUMO E1/E2 (Homo sapiens) (UniProt Q9UBE0+Q9UBT2+P63279)
Assay: Inhibition of purified SUMO E1/E2 (unknown origin)-mediated conjugation of His6-SUMO-1 to fluorescent peptide FL-AR at 30 uM after 90 mins by microfluidic electrophoretic mobility shift assay
Format: protein-complex assay

Question: For O=c1cc(-c2ccc(O)c(O)c2O)oc2ccccc12, which inhibition is on record?
Answer: Active

Question: Which inhibition does the source give for O=C(/C=C(\O)c1ccccc1O)c1ccc(O)c(O)c1O here?
Answer: Active

Question: O=c1cc(-c2ccccc2O)oc2c(O)c(O)ccc12 was tested. Which inhibition did it give?
Answer: inactive
